“And” between values parts separate entries of the source, which are not always exact repeats. Equal values may be shown once. Read-outs that look alike come from different tables or passages of the source. Where a SMILES comes first, the peptide text is derived from it. Bridges are numbered along the chain shown (N, C = ends). [ ]: non-standard residue; d: D form. Orn(fluoroacetimidoyl) = N=C(CF)NCCC[C@H](N)C(=O)O
Assays:
PADIs 1-4 = assay: COLDER citrullination activity of purified PADIs 1-4 and PADI4 C645A (no inhibitor); type: biochemical, human; parameters: key to Citrullination activity of PADI4 WT / C645A (Figure S4c): absorbance at 540 nm (colorimetric citrulline readout); details: for Absorbance at 540 nm: purified PADI enzyme, no inhibitor (Figure S10); for Citrullination activity of PADI4 WT / C645A (Figure S4c): no inhibitor
Description: (§1) PADI4 citrullination activity was analysed using the COLDER assay in 96-well plates. Peptide dilutions were prepared from a 500 µM stock, to give a 10 times concentrated dilution series (500 µM, 300 µM, 100 µM, 30 µM, 10 µM, 3 µM, 1 µM, 0.3 µM, 0.1 µM and 0.03 µM) in COLDER buffer (50 mM HEPES, 150 mM NaCl and 2 mM DTT, pH 7.5) containing 1% DMSO. In triplicate, each was diluted 10-fold further when mixed with 50 nM His-PADI4, 0.6 mg/mL BSA and 10 mM CaCl2, in COLDER buffer. With or without one hour of incubation, 10 mM N^α-Benzoyl-L-arginine ethyl ester hydrochloride (BAEE, Merck) was added to initiate the reaction (50 µL final volume). After 30 min at rt, EDTA (50 mM final concentration) was used to quench the reaction and 200 µL of COLDER solution containing 20 mM Diacetyl monoxime/2,3-butanedione monoxime (Merck), 0.5 mM Thiosemicarbazide (Acros Organics), 2.25 M H3PO4, 4.5 M H2SO4 and 1.5 mM NH4Fe(SO4)2.12H2O was added to each well. Samples were incubated for 20 min at 95 °C before measuring absorbance at 540 nm on a CLARIOstar Plus (BMG LABTECH). Data analysis was performed with GraphPad Prism. Data are presented as the average ± standard error of the mean from at least two independent replicates.

PADI4 [1] = target: T1, PADI4 (Homo sapiens, UniProt Q9UM07); assay: COLDER inhibition assay, BAEE substrate, with or without 1 h preincubation; type: biochemical; details: for IC50: COLDER; for remaining activity at 0.003 µM: peptide 0.003 µM; for remaining activity at 0.003 µM / remaining activity at 0.01 µM / remaining activity at 0.03 µM / remaining activity at 0.1 µM / remaining activity at 0.3 µM / remaining activity at 1 µM / remaining activity at 3 µM / remaining activity at 10 µM: read-out: PADI4 activity normalised to 0.1% DMSO; for remaining activity at 0.01 µM: peptide 0.01 µM; for remaining activity at 0.03 µM: peptide 0.03 µM; for remaining activity at 0.1 µM: peptide 0.1 µM; for remaining activity at 0.3 µM: peptide 0.3 µM; for remaining activity at 1 µM: peptide 1 µM; for remaining activity at 3 µM: peptide 3 µM; for remaining activity at 10 µM: peptide 10 µM
T1 construct: His6; made in house
T1 sequence (Q9UM07 whole entry): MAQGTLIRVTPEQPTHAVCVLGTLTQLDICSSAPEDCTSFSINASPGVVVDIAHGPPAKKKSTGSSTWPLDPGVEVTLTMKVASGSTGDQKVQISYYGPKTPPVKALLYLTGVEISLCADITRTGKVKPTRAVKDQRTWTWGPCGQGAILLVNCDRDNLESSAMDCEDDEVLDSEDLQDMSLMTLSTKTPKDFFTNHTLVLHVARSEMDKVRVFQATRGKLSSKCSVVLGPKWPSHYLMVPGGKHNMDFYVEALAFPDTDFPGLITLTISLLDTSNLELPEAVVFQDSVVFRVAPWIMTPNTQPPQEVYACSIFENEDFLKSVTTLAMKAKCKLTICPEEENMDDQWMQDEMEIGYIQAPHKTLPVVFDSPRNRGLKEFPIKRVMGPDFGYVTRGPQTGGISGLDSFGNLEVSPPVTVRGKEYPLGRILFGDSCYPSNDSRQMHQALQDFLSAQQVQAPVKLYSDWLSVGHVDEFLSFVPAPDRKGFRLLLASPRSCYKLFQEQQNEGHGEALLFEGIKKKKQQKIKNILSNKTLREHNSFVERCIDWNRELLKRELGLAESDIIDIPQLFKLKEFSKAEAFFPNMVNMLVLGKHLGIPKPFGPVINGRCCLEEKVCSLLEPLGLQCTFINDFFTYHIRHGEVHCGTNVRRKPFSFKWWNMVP
Description: as §1

PADI4 [2] = target: T1, PADI4; assay: Incubation time-dependent COLDER assay IC50(t), Krippendorff fit; type: biochemical; details: for IC50: replicates, read-out: apparent IC50; for Ki / kinact: Krippendorff fit of IC50 vs time
Description: To determine KI and kinact of covalent peptide inhibitors, COLDER assays were used[52]. Peptide dilutions were prepared using 5-fold dilutions from 500 µM and 300 µM to 0.8 µM and 2.4 µM, respectively, at 1% DMSO in COLDER buffer (50 mM HEPES, 150 mM NaCl and 2 mM DTT, pH 7.5). The 9 peptide dilutions were added to a 96-well plate, alongside a 1% DMSO control. An equal volume of 10 mM BAEE was added to each well and the solution was homogenised by pipette mixing. This was mixed with 50 nM His-PADI4, 0.6 mg/mL BSA and 10 mM CaCl2, in COLDER buffer, to bring the final volume to 300 µL in each well. Alternatively, His-PAD1 (100 nM) /His-PADI2 (100 nM) /His-PADI3 (250 nM) were used. For assays with PADI1 and PADI3, 10 mM N^α-benzoyl-L-arginine methyl […] (BAME) was used as the substrate instead of BAEE[48],[58],[59]. At 15-minute intervals, for 5 timepoints, 50 µL of solution was taken from each well and quenched with 10 µL EDTA (300 mM). 200 µL of COLDER solution containing 20 mM diacetyl monoxime/2,3-butanedione monoxime (Merck), 0.5 mM thiosemicarbazide (Acros Organics), 2.25 M H3PO4, 4.5 M H2SO4 and 1.5 mM NH4Fe(SO4)2.12H2O was added to each well. Samples were incubated for 20 min at 95 °C before measuring absorbance at 540 nm on a CLARIOstar Plus (BMG LABTECH). IC50 values for each time point were determined using non-linear regression with GraphPad Prism. Incubation time–dependent potency IC50(t) against incubation time was fitted to the Krippendorff equation (below) to determine KI and kinact using a Python script[53],[59]. […] IC50t=KI1+S/KM⋅2−2e^−ηIC50⋅kinact⋅t/ηIC50⋅kinact⋅t−1 WhereηIC50=IC50t/KI1+S/KM+IC50t

PADI4 [3] = target: T1, PADI4; assay: Surface plasmon resonance (SPR), single cycle kinetics; type: binding; details: for Ki: k-1/k+1
Description: S8. Surface plasmon resonance (SPR)
Using a Biacore S200 (GE Healthcare), biotinylated His-PADI4 (80 nM) was immobilised on a CAP chip (GE Healthcare) to a response unit of approx. 3000. At 25 °C, single cycle kinetics mode was used with 5 samples of a 3-fold dilution series of peptides PADI4_3_H4(2), cP4_2, […]
mM HEPES, 150 mM NaCl, 10 mM CaCl2, 0.05% Tween-20, 0.1% DMSO (pH 7.5). After each cycle, regeneration of the chip was carried out as per the manufacturer’s protocol. Data were analysed with the Biacore S200 Evaluation Software, each in triplicate. Warhead-containing peptides were analysed using the two-state reaction model, with the rate constant for the reverse second step (k-2) set to zero. The equilibrium constant of the reversible binding step, Ki, was calculated as the ratio of k-1/k+1 and the rate constant of the irreversible chemical step, kinact, as k+2. The Arg4, Cit4 and Me4 peptides were fitted using a 1:1 binding model. […]

[4] = 1 h preincubation of peptide and PADI4, 10 mM CaCl2, read-out: IC50 Values 1 h preincubation
[5] = no preincubation of peptide and PADI4, 10 mM CaCl2, read-out: IC50 Values 0 h preincubation
[6] = each replicate, read-out: k2 / kinact
[7] = two-state reaction model, k+2, read-out: SPR kinact (converted)

Molecule	IC50 (PADI4 [1]; [4]) [nM]	remaining activity at 0.003 µM (PADI4 [1]; T=0, values starred) [%]	remaining activity at 0.003 µM (PADI4 [1]; T=1) [%]	remaining activity at 0.01 µM (PADI4 [1]; T=0, values starred) [%]	remaining activity at 0.01 µM (PADI4 [1]; T=1) [%]	remaining activity at 0.03 µM (PADI4 [1]; T=0) [%]	remaining activity at 0.1 µM (PADI4 [1]; T=0) [%]	remaining activity at 0.3 µM (PADI4 [1]; T=0) [%]	remaining activity at 1 µM (PADI4 [1]; T=0) [%]	kinact/KI (PADI4 [2]) [M⁻¹ s⁻¹]	IC50 (PADI4 [2]; 15 mins)	IC50 (PADI4 [2]; 30 mins)	IC50 (PADI4 [2]; 45 mins)	IC50 (PADI4 [2]; 60 mins)	IC50 (PADI4 [2]; 75 mins)	Ki (PADI4 [2]) [nM]	kinact (PADI4 [2]) [s⁻¹]	kinact/KI (PADI4 [3]) [M⁻¹ s⁻¹]	kinact (PADI4 [3]; [6]) [s⁻¹]	kinact (PADI4 [3]; [7]) [s⁻¹]	also measured
PADI2																					Absorbance at 540 nm (PADIs 1-4): 0.974 and 1.004 and 1.007 and 0.7767 and 0.7637 and 0.7657
CC[C@H](C)[C@H](NC(=O)[C@H](Cc1c[nH]c2ccccc12)NC(=O)[C@H](CCC(=O)O)NC(=O)[C@@H]1CSCC(=O)N[C@H](Cc2ccc(O)cc2)C(=O)N[C@@H](C(C)C)C(=O)N[C@@H](Cc2ccc(O)cc2)C(=O)N[C@@H](CCCNC(=N)CF)C(=O)N[C@@H](CC(=O)O)C(=O)N1)C(=O)N[C@@H](CC(N)=O)C(=O)N[C@@H](CCCNC(=N)N)C(=O)N[C@@H](C)C(=O)NCC(N)=O [cP4_165, yVY(2)DCEWINRAG] ({CH2CO}-[dY]VY[Orn(fluoroacetimidoyl)]DCEWINRAG-NH2; thioether N-6)	170 ± 10	97.2	95	94.1	89	97.8	99.6	99.2	97	283	51.7 µM and 33.8 µM and 43.9 µM	22.5 µM and 16.4 µM and 14.6 µM	13.7 µM (2×) and 11.2 µM	11.9 µM and 10 µM and 8.76 µM	9.43 µM and 9.54 µM and 8.45 µM	8900 ± 1100	0.00267	1780	0.0013	0.0011	IC50 (PADI4 [1]; [5]): 11800 ± 4900 nM; remaining activity at 0.3 µM (PADI4 [1]; T=1): 24.1%; Ki (PADI4 [3]; two-state reaction model): 620 ± 60 nM
N=C(N)NCCC[C@@H]1NC(=O)[C@H](CCCCN)NC(=O)[C@H](CC(N)=O)NC(=O)[C@H](Cc2ccccc2)NC(=O)[C@H](CC(=O)O)NC(=O)[C@H](Cc2c[nH]c3ccccc23)NC(=O)[C@H](CC(N)=O)NC(=O)[C@H](CCCNC(=N)CF)NC(=O)[C@H](Cc2ccc(O)cc2)NC(=O)[C@H](Cc2c[nH]c3ccccc23)NC(=O)[C@@H](Cc2ccc(O)cc2)NC(=O)CSC[C@@H](C(=O)NCC(N)=O)NC1=O [cP4_10, yWY(2)NWDFNKRCG] ({CH2CO}-[dY]WY[Orn(fluoroacetimidoyl)]NWDFNKRCG-NH2; thioether N-12)	93 ± 2	93.1	98.1	92	81.1	91.3	90.6	91.5	75.7	1450	7.24 µM and 6.94 µM and 5.53 µM	3.82 µM and 3.29 µM and 3.6 µM	2.72 µM and 2.38 µM and 2.64 µM	2.15 µM and 2.09 µM and 2.33 µM	1.96 µM and 1.81 µM and 2.18 µM	1500 ± 300	0.00217	33400	0.0041	0.00383	IC50 (PADI4 [1]; [5]): 3100 ± 10 nM; remaining activity at 0.03 µM (PADI4 [1]; T=1): 82.2%; remaining activity at 3 µM (PADI4 [1]; T=0): 48.4%; remaining activity at 10 µM (PADI4 [1]; T=0): 19.7%; k2 / kinact (PADI4 [3]; each replicate): 0.0034 s⁻¹; Ki (PADI4 [3]; two-state reaction model): 120 ± 100 nM
PADI4																					Absorbance at 540 nm (PADIs 1-4): 1.538 and 1.537 and 1.638 and 1.921 and 1.811 and 1.856
N=C(N)NCCC[C@@H]1NC(=O)[C@H](Cc2ccc(O)cc2)NC(=O)[C@H](Cc2c[nH]cn2)NC(=O)[C@H](CCCNC(=N)CF)NC(=O)[C@H](CC(=O)O)NC(=O)[C@H](CCCNC(=N)N)NC(=O)[C@@H](Cc2ccc(O)cc2)NC(=O)CSC[C@@H](C(=O)NCC(N)=O)NC(=O)[C@H](Cc2ccc(O)cc2)NC(=O)[C@H](CCCCN)NC(=O)[C@@H]2CCCN2C(=O)[C@H](Cc2c[nH]cn2)NC1=O [PADI4_3_H4(2), yRD(2)HYRHPKYCG] ({CH2CO}-[dY]RD[Orn(fluoroacetimidoyl)]HYRHPKYCG-NH2; thioether N-12)	65 ± 7	103	102	100	83.7	102	101	96.2	77.4	2480	5.47 µM and 4.15 µM and 5.26 µM	2.46 µM and 1.82 µM and 2 µM	1.86 µM and 1.33 µM and 1.52 µM	1.43 µM and 1.06 µM and 1.16 µM	1.24 µM and 1.01 µM and 1.09 µM	1100 ± 200	0.00267	68000	0.001	0.00102	remaining activity at 0.03 µM (PADI4 [1]; T=1): 82.9%; remaining activity at 0.1 µM (PADI4 [1]; T=1): 29%; remaining activity at 3 µM (PADI4 [1]; T=0): 41.2%; remaining activity at 10 µM (PADI4 [1]; T=0): 18.1%; k2 / kinact (PADI4 [3]; each replicate, listed as P4_3_H4(2)): 0.0013 s⁻¹; Ki (PADI4 [3]; two-state reaction model): 15 ± 2 nM
WT																					Citrullination activity of PADI4 WT / C645A (Figure S4c) (PADIs 1-4; +EDTA): 0.259 and 0.261 and 0.247 and 0.193 and 0.23 and 0.231; Citrullination activity of PADI4 WT / C645A (Figure S4c) (PADIs 1-4; -EDTA): 1.114 and 1.151 and 1.275 and 1.3 and 1.248

Reference: article PMC11659602, “Discovering covalent cyclic peptide inhibitors of peptidyl arginine deiminase 4 (PADI4) using mRNA-display with a genetically encoded electrophilic warhead” (Communications Chemistry, 2024)
